Source: PMC12096242 (ACS Omega, 2025)

target: T1, TcGLIP (MBP-TcGLIP) (Tanacetum cinerariifolium, UniProt H6U1I8); experiment: HPLC
T1 sequence (H6U1I8 28-365): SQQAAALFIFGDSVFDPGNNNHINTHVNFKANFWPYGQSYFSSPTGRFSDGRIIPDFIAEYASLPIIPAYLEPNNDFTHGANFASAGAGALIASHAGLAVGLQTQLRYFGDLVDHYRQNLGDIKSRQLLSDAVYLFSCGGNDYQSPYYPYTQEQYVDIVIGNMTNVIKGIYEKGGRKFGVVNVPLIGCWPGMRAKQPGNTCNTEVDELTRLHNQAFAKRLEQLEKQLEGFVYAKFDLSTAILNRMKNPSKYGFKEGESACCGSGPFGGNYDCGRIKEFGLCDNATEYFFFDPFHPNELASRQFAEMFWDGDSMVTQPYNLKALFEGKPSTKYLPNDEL

Compound	IC50
C=C/C=C\CC1=C(C)[C@@H](O[P@](=O)(CCCCC)Oc2ccc([N+](=O)[O-])cc2)CC1=O [1b]	0.245 µM
C/C=C\CC1=C(C)[C@@H](O[P@@](=O)(CCCCCCCC)Oc2ccc([N+](=O)[O-])cc2)CC1=O [5a, (S)p, (S) c-2-Methyl-4-oxo-3-((Z)-2-buten-1-yl)cyclopent-2-en-1-yl 4-Nitrophenyl n-Octylphosphonate]	0.12 µM
C/C=C\CC1=C(C)[C@@H](O[P@](=O)(CCCCC)Oc2ccc([N+](=O)[O-])cc2)CC1=O [2b, (R)p, (S)c-2-Methyl-4-oxo-3-((Z)-2-buten-1-yl)cyclopent-2-en-1-yl 4-Nitrophenyl n-Pentylphosphonate]	0.347 µM
CC/C=C\CC1=C(C)[C@@H](O[P@](=O)(CCCCCCCC)Oc2ccc([N+](=O)[O-])cc2)CC1=O [6b, (R)p, (S)c-2-Methyl-4-oxo-3-((Z)-2-penten-1-yl)cyclopent-2-en-1-yl 4-Nitrophenyl n-Octylphosphonate]	0.038 µM
CC/C=C\CC1=C(C)[C@@H](O[P@@](=O)(CCCCC)Oc2ccc([N+](=O)[O-])cc2)CC1=O [3a, (S)p, (S)c-2-Methyl-4-oxo-3-((Z)-2-penten-1-yl)cyclopent-2-en-1-yl 4-Nitrophenyl n-Pentylphosphonate]	0.0407 µM
C=C/C=C\CC1=C(C)[C@@H](O[P@@](=O)(CCCCCCCC)Oc2ccc([N+](=O)[O-])cc2)CC1=O [4a]	0.0692 µM
C=C/C=C\CC1=C(C)[C@@H](O[P@](=O)(CCCCCCCC)Oc2ccc([N+](=O)[O-])cc2)CC1=O [4b]	0.0141 µM
CC/C=C\CC1=C(C)[C@@H](O[P@@](=O)(CCCCCCCC)Oc2ccc([N+](=O)[O-])cc2)CC1=O [6a, (S)p, (S)c-2-Methyl-4-oxo-3-((Z)-2-penten-1-yl)cyclopent-2-en-1-yl 4-Nitrophenyl n-Octylphosphonate]	0.309 µM
C=C/C=C\CC1=C(C)[C@@H](O[P@@](=O)(CCCCC)Oc2ccc([N+](=O)[O-])cc2)CC1=O [1a]	0.0234 µM
C/C=C\CC1=C(C)[C@@H](O[P@](=O)(CCCCCCCC)Oc2ccc([N+](=O)[O-])cc2)CC1=O [5b, (R)p, (S)c-2-Methyl-4-oxo-3-((Z)-2-buten-1-yl)cyclopent-2-en-1-yl 4-Nitrophenyl n-Octylphosphonate]	0.0275 µM
C/C=C\CC1=C(C)[C@@H](O[P@@](=O)(CCCCC)Oc2ccc([N+](=O)[O-])cc2)CC1=O [2a, (S)p, (S)c-2-Methyl-4-oxo-3-((Z)-2-buten-1-yl)cyclopent-2-en-1-yl 4-Nitrophenyl n-Pentylphosphonate]	0.0295 µM
CC/C=C\CC1=C(C)[C@@H](O[P@](=O)(CCCCC)Oc2ccc([N+](=O)[O-])cc2)CC1=O [3b, (R)p, (S)c-2-Methyl-4-oxo-3-((Z)-2-penten-1-yl)cyclopent-2-en-1-yl 4-Nitrophenyl n-Pentylphosphonate]	0.316 µM
